Laboratory results from patent US8796340B2, “Pharmaceutical composition comprising propofol” (Novaliq GmbH, priority 2009, dated 2014).

From the text: In further embodiments, the propofol concentration is from about 0.01 wt.-% to about 80 wt.-%, or from about 0.1 wt-% to about 50 wt.-%, or from about 1 wt.-% to about 20 wt.-%, or from about 2 wt.-% to about 20 wt.-%, respectively. In further embodiments, the strength is about 1 wt.-% or higher, such as about 2 wt.-%, 5 wt.-%, 10 wt.-%, 20 wt.-%, or 25 wt.-%.

CC(C)c1cccc(C(C)C)c1O [propofol, 2,6-di(propan-2-yl)phenol]
propofol concentration possible in SFA solutions (SFA solutions): up to 960 mg/mL
miscibility with SFA's (in most SFA's including F4H5, F6H6 and F6H8): freely miscible
